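The compound was tested at five concentrations on cells cultured in 96-well plates, with a 48-hour exposure period. GI50: concentration for 50% inhibition of growth.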 Activity calls are given as the source filed them. Cut-off read from the data, not from the text of the source: active = GI50 up to about 1.1 µM and inactive = higher.
What was measured:
Experiment in all cases: growth of human tumour cells (NCI), 48 h
A549 = tested on: A549
ACHN = tested on: ACHN
CAKI-1 = tested on: CAKI-1
CCRF-CEM = tested on: CCRF-CEM
HCC 2998 = tested on: HCC 2998
HOP-92 = tested on: HOP-92
IGROV-1 = tested on: IGROV-1
K562 = tested on: K562
MDA-MB-231 = tested on: MDA-MB-231
MOLT-4 = tested on: MOLT-4
Malme-3M = tested on: Malme-3M
NCI-H23 = tested on: NCI-H23
OVCAR-3 = tested on: OVCAR-3
RPMI-8226 = tested on: RPMI-8226
SK-MEL-5 = tested on: SK-MEL-5
SN12C = tested on: SN12C
T47D = tested on: T47D
U-251 = tested on: U-251
UACC-62 = tested on: UACC-62
NCI-H226 = tested on: NCI-H226

Measured: GI50

COc1ccc(-n2c3c(c4c(CN(C)C)c(O)ccc42)C(=O)c2ccccc2C3=O)cc1
inactive: A549 4.68 µM | ACHN 2.17 µM | CAKI-1 14.2 µM | CCRF-CEM 2.99 µM | HCC 2998 2.77 µM | HOP-92 16 µM | IGROV-1 3.99 µM | K562 2.09 µM | MDA-MB-231 3.08 µM | MOLT-4 3 µM | Malme-3M 11.4 µM | NCI-H23 12.7 µM | OVCAR-3 13.5 µM | RPMI-8226 2.17 µM | SK-MEL-5 1.69 µM | SN12C 2.82 µM | T47D 2.67 µM | U-251 2.94 µM | UACC-62 4.41 µM

O=C1N=C2SC(=S)N=C(S)N2NC12c1ccccc1-c1ccccc12
inactive: A549 > 10 µM | CAKI-1 > 10 µM | CCRF-CEM 7.78 µM | HCC 2998 > 10 µM | HOP-92 > 10 µM | IGROV-1 > 10 µM | K562 8.17 µM | MDA-MB-231 > 10 µM | MOLT-4 > 10 µM | Malme-3M > 10 µM | NCI-H23 9.4 µM | RPMI-8226 7.57 µM | SK-MEL-5 8.49 µM | SN12C > 10 µM | T47D 1.38 µM | U-251 > 10 µM | UACC-62 > 10 µM

COC1=C2C[C@](OC)(C#CC=CC#CC2O)CC1(C)C (some centres not stated)
inactive: A549 40.4 µM | ACHN > 100 µM | CAKI-1 > 100 µM | CCRF-CEM 34.4 µM | HCC 2998 37.3 µM | IGROV-1 18.2 µM | K562 54.8 µM | MDA-MB-231 > 100 µM | MOLT-4 49 µM | Malme-3M > 100 µM | NCI-H226 > 100 µM | NCI-H23 > 100 µM | OVCAR-3 > 100 µM | RPMI-8226 95.5 µM | SK-MEL-5 > 100 µM | SN12C > 100 µM | T47D > 100 µM | U-251 > 100 µM | UACC-62 34.6 µM

O=C(Cc1ccccc1)NNc1nc(NNC(=O)c2ccncc2)nc(Nc2ccc(Cl)cc2)n1
inactive: A549 > 10 µM | CAKI-1 > 10 µM | CCRF-CEM > 10 µM | HCC 2998 > 10 µM | HOP-92 > 10 µM | IGROV-1 > 10 µM | K562 > 10 µM | MDA-MB-231 > 10 µM | MOLT-4 > 10 µM | Malme-3M > 10 µM | NCI-H23 > 10 µM | RPMI-8226 > 10 µM | SK-MEL-5 > 10 µM | SN12C > 10 µM | T47D > 10 µM | U-251 > 10 µM | UACC-62 9.68 µM

From ChEMBL document CHEMBL1201862, “PubChem BioAssay data set” (2004)
